Results published in patent publication US7445931B2, “Compositions and methods for enrichment of neural stem cells using ceramide analogs” (Bresagen, Inc., priority 2002, dated 2008).

Experiments:
differentiating ES cells = experiment: Apoptosis (TUNEL) in ceramide-depleted differentiating ES cells and its restoration by ceramide or analogs; assay type: cell-based, mouse
Description: Fumonisin B1 (FB1) or myriocin-treated (ceramide-depleted) differentiating ES cells were incubated with natural ceramide. To prepare the natural ceramide, 50 mg of EBs or NPs were resuspended in 500 μl of water, and after phase separation with 500 μl of CHCl3/CH3OH (1:1 by vol.) the neutral lipids were recovered from the lower phase. The neutral lipids were evaporated to dryness with a gentle stream of nitrogen and redissolved in 1 ml of CHCl3. The solution was applied to a silicic acid gel column (0.5 g) and fatty acids and cholesterol washed out with another 15 ml of CHCl3 (Dasgupta and Hogan, 2001 J. Lipid Res., 42:301-308). The ceramide fraction was then eluted with 20 ml of CHCl3/acetone (9:1, by vol.), evaporated to dryness, and the residue (approximately 6 nmoles of ceramide) dissolved in 20 μl of ethanol containing 2% dodecane (vol./vol.). Aliquots of 5 μl were mixed with 1 ml of medium, yielding a final concentration of 1.5 μM natural ceramide for induction of apoptosis (Ji et al., 1995 FEBS Lett., 358:211-214).
Differentiating ES cells at the EB8 cells were dissociated and grown for 24 hours on laminin/ornithin-coated cover slips (NP1 stage) in DMEM/F12 (50/50), supplemented with 1×N2 and 20 ng/ml FGF-2. Cells were incubated for 3 hours with 10 μM bromodeoxyuridine (BrdU) and the TUNEL assay or immunostainings performed after 5 hours of incubation. For immunostaining, cells were fixed with 4% paraformaldehyde in phosphate-buffered saline (PBS). Fixed cells were permeabilized with 0.2% Triton X-100 in PBS for 5 minutes at room temperature and immunostaining performed as described previously (Bieberich et al., 2001 J. Biol. Chem., 276:44396-44404). The nuclei were stained by treatment with 2 μg/ml Hoechst 33258 in PBS for 30 minutes at room temperature. Apoptotic nuclei were stained using the fluorescein FragEL TUNEL assay according to instructions of the manufacturer (Oncogene).
The degree of apoptosis in differentiating ES cultures was determined since it was previously proposed that ceramide elevation induces apoptosis in NPs (Bieberch et al., 2001 J. Biol. Chem., 276:44396-44404). […] Apoptosis was elevated at the EB8 stage ([…]), and was highest at the NP2 stage (35+/−5%). […] Apoptosis was restored by the addition of 30 μM N-acetyl sphingosine (C2-ceramide), 80 μM of the novel ceramide analog N-oleoyl serinol (S18), or 1 μM of natural ceramide that was extracted from differentiating ES cells.

[1] = system: seeded sfEBMs derived from HESC colonies; experiment: S18 treatment of seeded serum free embryoid bodies (sfEBMs), morphology and DAPI staining; assay type: cell-based, human
Text: sfEBMs were derived from domed HESC colonies, grown in suspension for 24 days with one passage, and seeded to polyornithine/laminin coated chamber slides in DMEM/F12, supplemented with 1×N2 (Gibco), and 1% FCS.
Apoptosis in seeded serum free embryoid bodies was monitored by morphological observation of cell death and DAPI staining to reveal apoptotic nuclei. Apoptotic nuclei were observed as obviously fragmented and degenerating nuclei, with small punctuate patterns of DAPI staining. Rosette regions from essentially serum free embryoid bodies in suspension were passaged further in the same medium, either withdrawing S18 or culturing the embryoid bodies for an additional 4 to 8 days in the presence of S18. Rosette regions were then seeded onto polyornithine/laminin coated slides for analysis of proliferation and differentiation to neural lineages.

[2] = system: differentiating ES cells (NPs), PAR-4; experiment: S18-induced apoptosis (TUNEL) in NPs after PAR-4 antisense knockdown or PAR-4-RFP overexpression; assay type: cell-based, mouse
Description: For construction of PAR-4-REP cDNA, RT-PCR was performed with the oligonucleotide primer pair sense 5′atggcgaccggcggctatcg3′ (SEQ ID NO:14) and antisense 5′ctaccttgtcagctgcccaacaac3′(SEQ ID NO:15), using the first strand cDNA generated from embryoid bodies (EB8 stage) as template for the amplification reaction. The primers were endowed with the restriction enzyme cleaving sites Eco47III (sense) and SaII (antisense) for ligation of the PAR-4 specific amplification product into the multiple cloning site of HcRFP, a vector that encodes a far-red shifted variant of red fluorescent protein (Clontech). Differentiating ES cells at the NP1 stage were transfected with the PAR-4-RFP construct using the lipofectamine 2000 procedure according to the manufacturer's instructions (Invitrogen). The transfected cells were incubated in DMEM F12 (50/50), supplemented with 1×N2 and 20 ng/ml FGF-2, and the TUNEL assay or immunostainings were performed after 48 hours of incubation and NP formation. For depletion of ceramide, differentiating ES cell were incubated with 25 μM fumonisin B1 or 50 nM myriocin 48 hours prior to transfection with the PAR-4-RFP vector, and the inhibitor maintained in the medium throughout the post-transfection period. For induction of apoptosis, the novel ceramide analog S18 (40-100 μM), N-acetyl sphingosine (C2-ceramide, 10-30 μM), or natural ceramide isolated from EBs (0.5-1.5 μM) was added 48 hours after transfection with the PAR-4-RFP cDNA, and the degree of apoptosis quantified after 15-20 hours using TUNEL assays with paraformaldehyde-fixed cells as described above.
Endogenous expression of PAR-4 was suppressed by transfection of differentiating ES cells at the NP1 stage with 2 nmoles (per well in 24 wells plate) of the morpholino-based antisense oligonucleotide 5′cgatagccgccggtcgccatgttcc3′(SEQ ID NO:16) (see Guo et al., 1998, Nature Med., 4:957-962; Guo et al., 2001 Brain Res, 903:13-25) following the instructions of the manufacturer (GeneTools) in 0.5 ml of serum-free DMEM/F-12, 1XN2 supplemented with 20 ng/ml FGF-2. For induction of apoptosis, the novel ceramide analog S18 (40-100), N-acetyl sphingosine (C2 ceramide, […], or natural ceramide isolated from EBs (0.5-1.5 μM) was added 48 hours after transfection with the anti-PAR-4 morpholino, and the degree of apoptosis quantified after 15-20 hours using TUNEL assays with paraformaldehyde-fixed cells as described above.

[3] = FB1-treated cells at the NP2 stage

CCCCCCCC/C=C\CCCCCCCC(=O)NC(CO)CO [S18, N-(2-hydroxy-1-(hydroxymethyl)ethyl)-oleoylamide]
dependence of apoptosis on PAR-4 expression (differentiating ES cells; [3]): only seen in cells that expressed PAR-4 | number of PAR-4 positive cells (differentiating ES cells; [3]): did not alter the number of PAR-4 positive cells | restoration of apoptosis in FB1-treated cells (differentiating ES cells; NP2 stage, 30 μM C2-ceramide, 80 μM S18, or 1 μM natural ceramide): restored | concentration of endogenous ceramide (differentiating ES cells; S18 incubation of FB1-treated cells at the NP2 stage): did not alter the concentration of endogenous ceramide | time until effect was observed ([1]; 6, 8 or 10 μM S18): ≤ 24 h | effect on neural rosette structures ([1]; 6, 8 or 10 μM S18 for 36 hours): did not appear to be adversely affected | induction of apoptosis in the culture ([1]; 6, 8 or 10 μM S18 for 36 hours): induced apoptosis of a large proportion of the culture | cell death ([1]; 36 hours exposure to 6 μM S18): a high proportion of cells within these cultures have been killed | cell death ([1]; 36 hours exposure to 8 μM S18): a high degree of cell death is apparent | ceramide analog-induced apoptosis in untransfected or mock (RFP)-transfected cells ([2]; 40 μM S18): no or only a low degree | number of apoptotic cells ([2]; 80 μM S18, control morpholino-transfected and untransfected NPs): more than 80% | apoptosis in PAR-4-RFP transfected cells ([2]; myriocin-treated ES cells transfected at NP1 stage, 40 μM S18): apoptosis was observed
